# Data reported in publication PMC9506480, “Synthesis and Evaluation of Antiproliferative Activity, Topoisomerase IIα Inhibition, DNA Binding and Non-Clinical Toxicity of New Acridine–Thiosemicarbazone Derivatives” (Pharmaceuticals, 2022).
# Key:
# CT DNA–EtBr = assay: Fluorescence competition with EtBr; assay type: binding, calf; conditions: for Ksv (10^3) (M^−1): [EtBr] = 20 μmol L^−1, [DNA] = 100 μmol L^−1; for Quenching (%): [EtBr] = 20 μmol L^−1, [DNA] = 100 μmol L^−1, [compound] = 0–100 μmol L^−1
# Excerpt: EtBr is a weak fluorophore in an aqueous solvent, which has its fluorescence enhanced when it binds to DNA by the intercalative mode. The study of fluorescence quenching with EtBr is commonly used to assess the ability of compounds to interact with DNA by interfering with the fluorescence of the EtBr–DNA interaction (ESI, Figures S58 and S59). The EtBr–DNA complex in the presence and absence of CL-07 is shown in Figure 6, and the comparison of the quenching extent between studied compounds in terms of F/F0 vs. [compound] is illustrated in Figure 7.
# The fluorescence titration results were analyzed using the Stern–Volmer equation [101], and the Ksv values of CT DNA–EtBr in the presence of the compounds calculated the slope of the graphs. The fluorescence spectra of the EtBr or CT DNA–EtBr compounds were obtained by excitation at 526 nm and scanning the emission from 530 to 650 nm. Solutions containing CT DNA–EtBr (20 μM:100 μM) were analyzed in the presence of several derivative concentrations (10, 20, 40, 60, 80 and 100 μM) in Tris-HCl buffer (0.1 M, pH 7.4) (ESI, Figures S58 and S59):F0/F = 1 + Ksv[Q] F0 and F represent the steady-state fluorescence intensities of CT DNA–EtBr in the absence and presence of the compounds, respectively. [Q] refers to the concentration of derivatives as a quencher. Ksv indicates the Stern–Volmer quenching constant.
# Swiss mice = assay: Acute toxicity study (14 days), OECD guideline 423; assay type: in vivo; conditions: for Organ mass Heart (g) / Organ mass Kidneys (g) / Organ mass Lungs (g) / Organ mass Speleen (g) / Organ mass Liver (g): after acute toxicity study; for Organ mass Heart (g) / Organ mass Kidneys (g) / Organ mass Lungs (g) / Organ mass Speleen (g) / Food (g/day) / Water (mL/day) / Weight gain (g) / Organ mass Liver (g): 2000 mg/kg oral; for Food (g/day) / Water (mL/day) / Weight gain (g): during acute toxicity study; for DA/TA (dead animals/total animals) / Mortality (%) / Signs of Toxicity: single oral dose 2000 mg/kg, female mice, 14 days
# Method: Based on the low selectivity found in the in vitro cytotoxicity, we decided to perform a preclinical in vivo toxicological analysis on mice to understand the pharmacological profiles of the derivatives described herein. After oral administration of acridine–thiosemicarbazone derivatives to female mice, possible adverse clinical signs and mortality in the groups of animals submitted to the acute toxicity study were recorded (Table 6), as well as absolute body mass, food and water consumption, and the average masses of the organs of the animals treated with the compounds and the control group.
# An acute toxicity study was conducted according to Organization for Economic Co-operation and Development (OECD) guideline 423 (OECD 2001) with modifications (National Health Surveillance Agency Brazil, 2013). In principle, the method is not intended to allow an accurate calculation of the lethal dose (LD50), despite providing an estimate of its value; however, it allows a classification of the substance into categories according to the Globally Harmonized Classification System (GHS). The tests were carried out with the consent of the ethics council of the State University of Paraiba (process no. 008/2021, approved 9 November 2021). Swiss mice, three females per group, were subjected to single oral doses of 2000 mg/kg of acridine–thiosemicarbazone derivatives, and to the control group, we administered only the vehicle (12% Tween 80 solution in saline).
# After the end of treatment with acridine–thiosemicarbazone derivatives, the animals were anesthetized with a xylazine–ketamine solution of 0.2 mL/100 g (8.75 mL ketamine (100 mg/mL) and 1.25 mL xylazine (10 mg/mL)) as per Cornell University/Cornell Center for Animal Resources and Education protocol described by Flecknell (1996). After euthanasia, a macroscopic assessment of the external body surface, cavities (thoracic, abdominal and cranial) and organs (change in position, shape, size, color and consistency) was carried out. The absolute and relative weights of the brain, lungs, liver, heart, spleen and kidneys were also determined. Relative weight was calculated using the formula: relative organ weight (%) = (weight of organ/weight of mouse) × 100 [88, 89].
# K562-Lucena 1 = assay: MTT cytotoxicity assay on resistant leukemic cells, K562-Lucena 1; assay type: cell-based, human; conditions: for IC50: Homo sapiens, K562-Lucena 1, MTT, 72 h, multidrug-resistant
# Method: K562 (human erythroleukemic) and its multidrug-resistant counterpart, K562-Lucena 1, were obtained from the Tumor Immunology Laboratory (Federal University of Rio de Janeiro) (Rumjanek et al., 2001) and were cultured as recommended by Daflon-Yunes et al., 2013 [93, 106, 107].
# CL-07, DL-01 and DL-08 compounds were evaluated for cell viability on K562 and K562-Lucena 1 cells using the colorimetric tetrazolium method (Mosmann, 1983). Cells were plated in 96-well plates. Compounds were dissolved in 1% (v/v) DMSO and RPMI-1640 medium (Sigma-Aldrich) in five serial concentrations from 1 to 50 µg/mL and were later added to each well and incubated for 72 h at 37 °C in a 5% CO2 humidified environment. As a positive control, 1 µM staurosporine was used. Then, the cells were treated with 20 µL of 5 mg/mL 3-(4,5-dimethylthiazol-2yl)-2,5-diphenyltetrazolium bromide solution (MTT solution in phosphate buffer solution) for 3 h. At the end of treatment, absorbances at 562 nm were measured using an iMark™ Microplate Absorbance Reader (iMark™, Hercules, CA, USA). Half-inhibitory concentration (IC50) was obtained by nonlinear regression with 95% confidence intervals (CI 95%) using GraphPad Prism software (Intuitive Software for Science; San Diego, CA, USA).
SMILES,Ksv (10^3) (M^−1) (CT DNA–EtBr; Stern–Volmer constant),"Ksv (CT DNA–EtBr; Stern–Volmer constant, abstract value)",Quenching (%) (CT DNA–EtBr),Organ mass Heart (g) (Swiss mice),Organ mass Kidneys (g) (Swiss mice),Organ mass Lungs (g) (Swiss mice),Organ mass Speleen (g) (Swiss mice),Food (g/day) (Swiss mice),Water (mL/day) (Swiss mice),Weight gain (g) (Swiss mice),DA/TA (dead animals/total animals) (Swiss mice),Mortality (%) (Swiss mice),Signs of Toxicity (Swiss mice),IC50 (K562-Lucena 1),Organ mass Liver (g) (Swiss mice),selectivity K562-Lucena 1 versus MRC-5 (K562-Lucena 1; more selective than MRC-5)
"Oc1ccc(/C=N/NC(=S)Nc2c3ccccc3nc3ccccc23)cc1 [CL-07, (E)-N-(acridin-9-yl)-2-(4-hydroxybenzylidene)hydrazine-1-carbothioamide]",2.6 10^3 M^−1,2600 M⁻¹,21.71%,"0,417±0,038 g","1,308±0,099 g","0,619±0,089 g","0,574±0,061 g","14,57±1,78 g/day","23,57±1,34 mL/day","1,33±0,27 g",0/3,0%,None,43.4 µM,–,–
"COc1ccc2nc3cc(Cl)ccc3c(NC(=S)N/N=C/c3cccc(O)c3)c2c1 [DL-08, (E)-N-(6-chloro-2-methoxyacridin-9-yl)-2-(3-hydroxybenzylidene)hydrazine-1-carbothioamide]",2.5 10^3 M^−1,–,20.83%,"0,427±0,035 g","1,355±0,062 g","0,646±0,032 g","0,412±0,033 g","15,21±0,97 g/day","25,28±0,46 mL/day","0,76±0,43 g",0/3,0%,Hepatic steatosis,17.1 µM,"5,619±0,259 g",–
"COc1ccc2nc3cc(Cl)ccc3c(NC(=S)N/N=C/c3ccccc3)c2c1 [DL-01, (E)-2-benzylidene-N-(6-chloro-2-methoxyacridin-9-yl)hydrazine-1-carbothioamide]",1.8 10^3 M^−1,–,15.61%,"0,410±0,039 g","1,338±0,091 g","0,640±0,057 g","0,551±0,037 g","12,35±1,39 g/day","23,71±1,26 mL/day","0,69±0,58 g",0/3,0%,Reduced feed consumption,16.5 µM,"5,257±0,610 g",2 times
